In ChEMBL document CHEMBL1133922, “Evolution of anti-HIV drug candidates. Part 2: Diaryltriazine (DATA) analogues” (Bioorg Med Chem Lett, 2001):

How the values were obtained:
[1] = test system: Human immunodeficiency virus 1; assay: Inhibitory activity against LAI strain of HIV-I in MT-4 cell was determined; assay type: functional, organism-based; conditions: Human immunodeficiency virus 1, MT4
[2] = test system: Human immunodeficiency virus 1; assay: Inhibitory activity against 103N strain of HIV-I in MT-4 cell was determined; assay type: functional, organism-based; conditions: Human immunodeficiency virus 1, MT4
[3] = test system: Human immunodeficiency virus 1; assay: Inhibitory activity against 181C strain of HIV-I in MT-4 cell was determined; assay type: functional, organism-based; conditions: Human immunodeficiency virus 1, MT4
[4] = test system: Human immunodeficiency virus 1; assay: Inhibitory activity against 100I strain of HIV-I in MT-4 cell was determined; assay type: functional, organism-based; conditions: Human immunodeficiency virus 1, MT4
[5] = test system: Human immunodeficiency virus 1; assay: Inhibitory activity against 188L strain of HIV-1 in MT-4 cell was determined; assay type: functional, organism-based; conditions: Human immunodeficiency virus 1, MT4
[6] = test system: MT4; assay: Inhibitory activity against 100I strain and 103N strain of HIV-I in MT-4 cell was determined; assay type: functional, cell-based; conditions: Homo sapiens
[7] = test system: MT4; assay: Inhibitory activity against 103N strain and 181C strain of HIV-I in MT-4 cell was determined; assay type: functional, cell-based; conditions: Homo sapiens
[8] = test system: MT4; assay: Inhibitory activity against LAI strain of HIV-I in MT-4 cell was determined; Not determined; assay type: functional, cell-based; conditions: Homo sapiens

Row | Structure (SMILES) | IC50 [1] [µM] | IC50 [2] [µM] | IC50 [3] [µM] | IC50 [4] [µM] | IC50 [5] [µM] | IC50 [6] [µM] | IC50 [7] [µM] | IC50 [8] [µM]
1 | CCCNc1nc(Cc2c(Cl)cccc2Cl)nc(Nc2ccc(C#N)cc2)n1 | 0.849 | – | – | – | – | – | – | –
2 | CC(C)NC(=O)Nc1nc(Cc2c(Cl)cccc2Cl)nc(Nc2ccc(C#N)cc2)n1 | 0.379 | 7.55 | 43.8 | 35.1 | – | – | – | –
3 | N#Cc1ccc(Nc2nc(Cc3c(Cl)cccc3Cl)nc(N=[N+]=[N-])n2)cc1 | 0.014 | 0.224 | 1.14 | – | – | – | – | –
4 | N#Cc1ccc(Nc2nc(N)nc(Oc3c(Cl)cc(F)cc3Cl)n2)cc1 | 0.0073 | 0.065 | 0.259 | 0.706 | 1.02 | – | – | –
5 | CN(C)CCOc1nc(Cc2c(Cl)cccc2Cl)nc(Nc2ccc(C#N)cc2)n1 | 0.0055 | 0.037 | 1.39 | 1.08 | 0.315 | – | – | –
6 | N#Cc1ccc(Nc2nc(N)nc(Oc3c(Cl)cccc3Cl)n2)cc1 | 0.0031 | 0.082 | 0.279 | 0.384 | 4.57 | – | – | –
7 | N#Cc1ccc(Nc2nc(S)nc(Cc3c(Cl)cccc3Cl)n2)cc1 | 0.094 | 0.723 | 1.61 | – | – | – | – | –
8 | N#Cc1ccc(Nc2nc(Cc3c(Cl)cccc3Cl)nc(NN)n2)cc1 | 0.61 | 1.74 | 5.83 | 5.83 | 7.32 | – | – | –
9 | Cc1cc(C)c(Oc2ncnc(Nc3ccc(C#N)cc3)n2)c(C)c1 | 0.0006 | 0.003 | 0.02 | 0.02 | 0.063 | > 10 | – | –
10 | Cc1cc(Br)c(Oc2ncnc(Nc3ccc(C#N)cc3)n2)c(Br)c1 | 0.0013 | 0.006 | 0.04 | 0.016 | 0.398 | – | – | –
11 | CN(C)/C=N\c1nc(Cc2c(Cl)cccc2Cl)nc(Nc2ccc(C#N)cc2)n1 | 0.0025 | 0.016 | 0.316 | 0.631 | 0.251 | – | – | –
12 | Cc1cc(C)c(Sc2nc(N)nc(Nc3ccc(C#N)cc3)n2)c(C)c1 | 0.0029 | 0.006 | 0.019 | 0.064 | 0.036 | – | – | –
13 | Cc1cc(C#N)cc(C)c1Oc1ncnc(Nc2ccc(C#N)cc2)n1 | 0.004 | 0.02 | 0.501 | 1 | 0.251 | 3.98 | 0.398 | –
14 | N#Cc1ccc(Nc2nc(N)nc(Cc3c(Cl)cccc3Cl)n2)cc1 | 0.0063 | 0.04 | 0.2 | 0.398 | 0.316 | – | – | –
15 | C[S+]([O-])c1nc(Cc2c(Cl)cccc2Cl)nc(Nc2ccc(C#N)cc2)n1 (configuration not stated) | 1.55 | 15.5 | 68.5 | – | – | – | – | –
16 | N#Cc1ccc(Nc2nc(O)nc(Cc3c(Cl)cccc3Cl)n2)cc1 | 0.16 | 0.607 | 2.12 | – | – | – | – | –
17 | CCCONc1nc(Cc2c(Cl)cccc2Cl)nc(Nc2ccc(C#N)cc2)n1 | – | – | – | – | – | – | – | 100
18 | N#Cc1ccc(Nc2nc(N)nc(Cc3ccc(Cl)cc3Cl)n2)cc1 | 0.014 | 0.274 | 0.791 | 2.1 | 2.32 | – | – | –
19 | CCOC(=O)Nc1nc(Cc2c(Cl)cccc2Cl)nc(Nc2ccc(C#N)cc2)n1 | 0.012 | 0.548 | 1.32 | 1.64 | 1.73 | – | – | –
20 | CNc1nc(Cc2c(Cl)cccc2Cl)nc(Nc2ccc(C#N)cc2)n1 | 0.007 | 0.137 | 0.44 | 1.16 | 1.02 | – | – | –
21 | CCONc1nc(Cc2c(Cl)cccc2Cl)nc(Nc2ccc(C#N)cc2)n1 | – | – | – | – | – | – | – | 0.0246
22 | N#Cc1ccc(Nc2nc(N)nc(Cc3c(Cl)ccc(Cl)c3Cl)n2)cc1 | 0.003 | 0.063 | 0.286 | 0.416 | 0.265 | – | – | –
23 | N#Cc1ccc(Nc2nc(N)nc(Cc3ccccc3Cl)n2)cc1 | 0.13 | 0.4 | 2.57 | 2.65 | 7.37 | – | – | –
24 | Cc1cc(Br)cc(C)c1Nc1ncnc(Nc2ccc(C#N)cc2)n1 | 0.0006 | 0.006 | 0.016 | 0.079 | 0.063 | 3.16 | 0.126 | –
25 | COc1nc(Cc2c(Cl)cccc2Cl)nc(Nc2ccc(C#N)cc2)n1 | 0.012 | 0.231 | 1.45 | 1.15 | 1.55 | – | – | –
26 | CN(C)CCNc1nc(Cc2c(Cl)cccc2Cl)nc(Nc2ccc(C#N)cc2)n1 | 0.005 | 0.021 | 0.379 | 1.26 | 0.297 | – | – | –
27 | Cc1cc(C)cc(Cc2nc(N)nc(Nc3ccc(C#N)cc3)n2)c1 | 0.091 | 5.08 | 6.37 | 77.9 | > 100 | – | – | –

Row | Structure (SMILES) | IC50 [1] [µM] | IC50 [2] [µM] | IC50 [3] [µM] | IC50 [4] [µM] | IC50 [5] [µM] | IC50 [6] [µM] | IC50 [7] [µM] | IC50 [8] [µM]
28 | CN(C)c1nc(Cc2c(Cl)cccc2Cl)nc(Nc2ccc(C#N)cc2)n1 | 0.166 | 4.69 | 13.4 | 32.2 | – | – | – | –
29 | CONc1nc(Cc2c(Cl)cccc2Cl)nc(Nc2ccc(C#N)cc2)n1 | 0.0062 | 0.082 | 0.0628 | 1.38 | 0.804 | – | – | –
30 | Cc1ccc(C)c(Cc2nc(N)nc(Nc3ccc(C#N)cc3)n2)c1 | 0.0031 | 0.273 | 1.57 | 5.86 | 1.03 | – | – | –
31 | N#Cc1ccc(Nc2nc(F)nc(Cc3c(Cl)cccc3Cl)n2)cc1 | 5.26 | 52.6 | 100 | – | – | – | – | –
32 | N#Cc1ccc(Nc2nc(N)nc(Cc3c(Cl)cc(Cl)cc3Cl)n2)cc1 | 0.0014 | 0.016 | 0.0062 | 0.221 | 0.161 | – | – | –
33 | Cc1cc(I)cc(C)c1Oc1nc(N)nc(Nc2ccc(C#N)cc2)n1 | 0.03 | 0.01 | 0.068 | 0.204 | 0.075 | – | – | –
34 | Cc1cc(C)c(C)c(Cc2nc(N)nc(Nc3ccc(C#N)cc3)n2)c1C | 0.0046 | 0.085 | 1.19 | 6.7 | 0.367 | – | – | –
35 | N#Cc1ccc(Nc2nc(N)nc(Oc3c(Br)cc(Br)cc3Br)n2)cc1 | 0.0054 | 0.017 | 0.061 | 0.131 | 0.619 | – | – | –
36 | CSc1nc(Cc2c(Cl)cccc2Cl)nc(Nc2ccc(C#N)cc2)n1 | 0.018 | 0.336 | 2.35 | – | – | – | – | –
37 | CON(C)c1nc(Cc2c(Cl)cccc2Cl)nc(Nc2ccc(C#N)cc2)n1 | 0.086 | – | – | – | – | – | – | –
38 | COc1cccc(OC)c1Oc1nc(N)nc(Nc2ccc(C#N)cc2)n1 | 0.031 | 0.526 | 1.56 | – | – | – | – | –
39 | Cc1cccc(C)c1Cc1nc(N)nc(Nc2ccc(C#N)cc2)n1 | 0.0012 | 0.042 | 0.225 | 1.46 | 0.105 | – | – | –
40 | N#Cc1ccc(Nc2nc(N)nc(Cc3ccccc3)n2)cc1 | 0.285 | 8.47 | > 100 | 8.07 | – | – | – | –
41 | Cc1cc(C)c(Sc2ncnc(Nc3ccc(C#N)cc3)n2)c(C)c1 | 0.002 | 0.003 | 0.013 | 0.032 | 0.02 | > 10 | – | –
42 | N#Cc1ccc(Nc2nc(Cl)nc(Cc3c(Cl)cccc3Cl)n2)cc1 | 1.08 | 10 | 10 | – | – | – | – | –
43 | Cc1cc(N)cc(C)c1Oc1nc(N)nc(Nc2ccc(C#N)cc2)n1 | 7.83 | > 100 | > 100 | – | – | – | – | –
44 | Cc1cc([N+](=O)[O-])cc(C)c1Oc1nc(N)nc(Nc2ccc(C#N)cc2)n1 | 0.002 | 0.008 | 0.057 | 0.33 | 0.123 | – | – | –
45 | N#Cc1ccc(Nc2nc(N)nc(Oc3c(F)cc(F)cc3F)n2)cc1 | 0.051 | 0.087 | 3.65 | 0.216 | 8.95 | – | – | –
46 | N#Cc1ccc(Nc2nc(N)nc(Oc3c(Cl)cc(Cl)cc3Cl)n2)cc1 | 0.0024 | 0.012 | 0.062 | 0.087 | 0.502 | – | – | –
47 | N#Cc1ccc(Nc2nc(Cc3c(Cl)cccc3Cl)nc(N3CCOCC3)n2)cc1 | 0.194 | – | – | – | – | – | – | –
48 | Cc1cc(Br)cc(Cl)c1Oc1nc(N)nc(Nc2ccc(C#N)cc2)n1 | 0.0021 | 0.006 | 0.035 | 0.059 | 0.103 | – | – | –
49 | Cc1cc(C)c(Cc2nc(N)nc(Nc3ccc(C#N)cc3)n2)c(C)c1 | 0.0008 | 0.003 | 0.015 | 0.082 | 0.045 | – | – | –
50 | CC(=O)Nc1nc(Cc2c(Cl)cccc2Cl)nc(Nc2ccc(C#N)cc2)n1 | 0.016 | 0.04 | 100 | 100 | 0.158 | – | – | –
51 | Cc1cc(C#N)cc(C)c1Nc1ncnc(Nc2ccc(C#N)cc2)n1 | 0.001 | 0.008 | 0.05 | 0.251 | 0.05 | 2.51 | 0.126 | –
52 | CC(=N)Nc1nc(Cc2c(Cl)cccc2Cl)nc(Nc2ccc(C#N)cc2)n1 | 0.0027 | 0.04 | 0.21 | 0.611 | 0.358 | – | – | –
53 | N#Cc1ccc(Nc2nc(Cc3c(Cl)cccc3Cl)nc(NO)n2)cc1 | 0.0024 | 0.013 | 0.038 | 0.107 | 0.026 | – | – | –
